Consider 52 compounds from patent publication US20100022559A1, “BISOXIMES AS FUNGICIDES” (BAYER CROPSCIENCE AG, priority 2006, published 2010).

A short description of the first data set: logP determination by HPLC on a reversed-phase column (C 18), EEC Directive 79/831 Annex V.A8. The following applies: [a] acidic range, pH 2.3, 0.1% aqueous phosphoric acid and acetonitrile. It is filed as physicochemical. How it is done: The stated logP values were determined in accordance with EEC Directive 79/831 Annex V.A8 by HPLC (high performance liquid chromatography) on a reversed-phase column (C 18). Temperature: 43° C.
As for `C/C(=N\OCC(C)CON)c1ccc(C)c(C)n1` (racemic) [XII-7], the logP was 0.37^[a]. As to `C/C(=N\OCC(C)CON)c1cc(C)cc(C)n1` (racemic) [XII-9], the logP is 0.49^[a]. With `C/C(=N\OCC(C)CON)c1cccc(C)n1` (racemic) [XII-11], the logP was 0.7^[a]. The same measure, in the same setting: for `C/C(=N\OCC(C)CON)c1cc(C(F)(F)F)cc(C)n1` (racemic) [XII-15] the value was 2.33^[a].

Staying with this data set, now noted: [b] LC-MS, acidic range, pH 2.7, 0.1% aqueous formic acid and acetonitrile.
In the case of `C/C(=N\OCC(C)CON)c1cccc(-c2cccc(C)n2)n1` (racemic) [XII-5], the logP was 1.35^[b]. Same read-out and setting: the value for `C/C(=N\OCC(C)CON)c1ccc(C)c(C)n1` (racemic) [XII-7] was 0.37^[b]; that for `C/C(=N\OCC(C)CON)c1cc(C)cc(C)n1` (racemic) [XII-9] was 0.49^[b]. As for `C/C(=N\OCC(C)CON)c1cccc(C)n1` (racemic) [XII-11], the logP was 0.7^[b]. Same read-out and setting: for `C/C(=N\OCC(C)CON)c1cc(C(F)(F)F)cc(C)n1` (racemic) [XII-15] the value was 2.33^[b].

The same data set, now with this note: [c] LC-MS, neutral range, pH 7.8, 0.001 molar aqueous ammonium bicarbonate solution and acetonitrile.
On to `C/C(=N\OCC(C)CON)c1cccc(-c2cccc(C)n2)n1` (racemic) [XII-5], for which the logP was 3.36^[c].

As to `C/C(=N\OCC(C)CON)c1ccc(C)c(C)n1` (racemic) [XII-7], the logP is 2.49^[c]. Same read-out and setting: the value for `C/C(=N\OCC(C)CON)c1cccc(C)n1` (racemic) [XII-11] was 2.15^[c]. The same measure, in the same setting: for `C/C(=N\OCC(C)CON)c1cc(C(F)(F)F)cc(C)n1` (racemic) [XII-15] the value was 3.38^[c].

The same data set, now with this note: method marked [a] in Table 1.
In the case of `Cc1cccc(C(=NOCC(C)(C)CON=C(c2ccccc2)c2cccc(C)n2)c2ccccc2)n1` (mixture of isomers) [compound 660], the logP is 4.09^[a].

Staying with this data set, now noted: method marked [b] in Table 1.
As for `CC(=NOCC(C)CON=C(C)c1ccc(C)c(C)n1)c1cc(C)cc(C)n1` (racemic) [Compound 694], the logP was 2.63^[b]. Consider `CCC1=NOC(CON=C(CC)c2ccc(C)cn2)(CON=C(CC)c2cccc(C)n2)C1` (racemic) [compound 607], for which the logP is 4.04^[b].

On to `C=C(CON=C(C)c1cccc(C)n1)CON=C(c1cccc(C)n1)C(C)C` (single isomer, unassigned) [Compound 672], for which the logP was 3.87^[b] (isomer A). The same measure, in the same setting: the value for `CC(=NOCC(CON=C(C)c1nc(C)ccc1C)C(C)C)c1nc(C)ccc1C` (single isomer, unassigned) [Compound 753] was 4.51^[b].

Staying with this data set, now noted: method marked [c] in Table 1.
Turning to `CC(=NOCC(C)CON=C(C)c1ccc(C)c(C)n1)c1cc(C)cc(C)n1` (racemic) [Compound 694], the logP is 6.17^[c]. Still for that read-out and setting: the value for `CC(=NOCC(CON=C(C)c1nc(C)ccc1C)C(C)C)c1nc(C)ccc1C` (single isomer, unassigned) [Compound 753] was 5.95^[c].

The data set is the same for the next values; noted with them: method marker [a] (footnote not shown); isomer A / isomer B / isomer mixture as noted in the cell.
Consider `CC(=NOCC1(CON=C(C)c2cccc(C)n2)CCO1)c1ccccn1` (racemic) [compound 26], for which the logP is 2.29^[a]. Turning to `Cc1cccc(C(=NOCCCON=C(c2cccc(C)n2)C(C)C)C(C)C)n1` (single isomer, unassigned) [Compound 88], the logP was 5.52^[a] (isomer B). Same read-out and setting: for `Cc1cccnc1C(Cc1ccccc1)=NOCCCON=C(Cc1ccccc1)c1ncccc1C` (single isomer, unassigned) [Compound 97] the value was 4.89^[a] (isomer A); for `Cc1cccc(C(CC(C)C)=NOCCCON=C(CC(C)C)c2cccc(C)n2)n1` (single isomer, unassigned) [Compound 115], 7.08^[a] (isomer B); for `Cc1cccc(C(=NOCC(C)CON=C(c2cccc(C)n2)C2CC2)C2CC2)n1` (single isomer, unassigned) [Compound 164], 3.51^]a] (isomer B). As to `CC(=NOCCCON=C(C)c1ncccc1C)c1ncccc1C` (single isomer, unassigned) [compound 84], the logP is 2.51^[a] (isomer B). Still for that read-out and setting: for `CC(=NOCCCON=C(C)c1ncccc1C)c1ncccc1C` (single isomer, unassigned) [compound 85] the value was 2.15^[a] (isomer A); for `Cc1cccc(C(=NOCCCON=C(c2cccc(C)n2)C(C)C)C(C)C)n1` (single isomer, unassigned) [compound 89], 4.45^[a] (isomer A). Same read-out and setting: the value for `CCC(=NOCCCON=C(CC)c1ncccc1C)c1ncccc1C` (single isomer, unassigned) [compound 94] was 3.65^[a] (isomer B); that for `CCC(=NOCCCON=C(CC)c1ncccc1C)c1ncccc1C` (single isomer, unassigned) [compound 95] was 3.11^[a] (isomer A); that for `Cc1cccnc1C(Cc1ccccc1)=NOCCCON=C(Cc1ccccc1)c1ncccc1C` (single isomer, unassigned) [compound 96] was 5.54^[a] (isomer B). On the same count and under the same terms, the value for `CCCC(=NOCCCON=C(CCC)c1ncccc1C)c1ncccc1C` (single isomer, unassigned) [compound 98] was 4.83^[a] (isomer B); that for `CCCC(=NOCCCON=C(CCC)c1ncccc1C)c1ncccc1C` (single isomer, unassigned) [compound 99] was 4.22^[a] (isomer A). For the compound `CCC(=NOCC(C)CON=C(CC)c1ncccc1C)c1ncccc1C` (single isomer, unassigned) [compound 100], the logP is 3.58^[a] (isomer A). On the same count and under the same terms, for `CCC(=NOCC(C)CON=C(CC)c1ncccc1C)c1ncccc1C` (single isomer, unassigned) [compound 101] the value was 4.23^[a] (isomer B); for `Cc1cccnc1C(CC(C)C)=NOCC(C)CON=C(CC(C)C)c1ncccc1C` (single isomer, unassigned) [compound 102], 6.50^[a] (isomer B). The same measure, in the same setting: for `Cc1cccnc1C(Cc1ccccc1)=NOCC(C)CON=C(Cc1ccccc1)c1ncccc1C` (single isomer, unassigned) [compound 108] the value was 5.32^[a] (isomer A).

Turning to `Cc1cccnc1C(Cc1ccccc1)=NOCC(C)CON=C(Cc1ccccc1)c1ncccc1C` (single isomer, unassigned) [compound 109], the logP is 6.00^[a] (isomer B). `Cc1cccnc1C(CC(C)C)=NOCC(C)CON=C(CC(C)C)c1ncccc1C` (single isomer, unassigned) [compound 110]: the logP was 5.78^[a] (isomer A).

As for `Cc1cccc(C(CC(C)C)=NOCCCON=C(CC(C)C)c2cccc(C)n2)n1` (single isomer, unassigned) [compound 114], the logP is 5.92^[a] (isomer A).

The data set is the same for the next values; noted with them: method marker [b]; isomer A / isomer B / isomer mixture as noted in the cell.
In the case of `CC(=NOCC1(CON=C(C)c2cccc(C)n2)CCO1)c1ccccn1` (racemic) [compound 26], the logP was 2.43^[b]. Still for that read-out and setting: for `C=C(CON=C(C)c1ccccn1)CON=C(C)c1cccc(C)n1` (single isomer, unassigned) [Compound 17] the value was 3.10^[b] (isomer A).

In the case of `C=C(CON=C(C)c1cccc(C)n1)CON=C(C)c1nc(C)cc(OC)n1` (single isomer, unassigned) [Compound 177], the logP is 3.08^[b] (isomer A). Take `C=C(CON=C(C)c1cccc(C)n1)CON=C(C)c1ncccc1C` (single isomer, unassigned) [Compound 203]: the logP is 3.03^[b] (isomer A).

Take `C=C(CON=C(C)c1nc(C)c(C)s1)CON=C(C)c1nc(C)c(C)s1` (single isomer, unassigned) [compound 68]: the logP is 5.25^[b]. The same measure, in the same setting: for `C=C(CON=C(C)c1nc(C)c(C)s1)CON=C(C)c1nc(C)c(C)s1` (single isomer, unassigned) [compound 69] the value was 4.99^[b] (isomer A); for `C=C(CON=C(C)c1cccs1)CON=C(C)c1cccs1` (single isomer, unassigned) [compound 77], 4.84^[b] (isomer B); for `C=C(CON=C(C)c1cccs1)CON=C(C)c1cccs1` (single isomer, unassigned) [compound 79], 4,56^[b] (isomer A). The same measure, in the same setting: for `C=C(CON=C(C)c1cccc(C)n1)CON=C(C)c1ncc(C(F)(F)F)cc1Cl` (single isomer, unassigned) [compound 135] the value was 4.95^[b] (isomer B); for `C=C(CON=C(C)c1cccc(C)n1)CON=C(C)c1ncccc1Cl` (single isomer, unassigned) [compound 139], 3.39^[b] (isomer B).

As to `C=C(CON=C(C)c1cccc(C)n1)CON=C(C)c1ncccc1Cl` (single isomer, unassigned) [compound 140], the logP was 4.40^[b] (isomer A). On the same count and under the same terms, for `C=C(CON=C(C)c1cccc(C)n1)CON=C(CC)c1ncccc1C` (single isomer, unassigned) [compound 142] the value was 3.84^[b] (isomer )B.

The data set is the same for the next values; noted with them: value marked [a].
Turning to `CC(=NOC1CCC(ON=C(C)c2cc(C)cc(C)n2)C1)c1cc(C)cc(C)n1` (mixture of isomers) [compound 796], the logP is 2.55^[a]. Same read-out and setting: for `CC(=NOC1CCC(ON=C(C)c2cccc(C)n2)C1)c1cccc(C)n1` (mixture of isomers) [compound 797] the value was 4.60^[a]; for `CC(=NOC1CCCC(ON=C(C)c2cccc(C)n2)C1)c1cccc(C)n1` (mixture of isomers) [compound 801], 4.96^[a]; for `CC(=NOC1CCC(ON=C(C)c2cccc(C3CC3)n2)C1)c1cccc(C2CC2)n1` (mixture of isomers) [compound 813], 7.36^[a].

Turning to `CC(=NOCC(C)CON=C(C)c1cc(Cl)cc(C)n1)c1cc(C)cc(C)n1` (racemic) [compound 878], the logP was 5,69^[a]. Still for that read-out and setting: for `C=C(CON=C(c1cccc(C)n1)C1CC1)CON=C(c1cccc(C)n1)C1CC1` (single isomer, unassigned) [Compound 311] the value was 3.29^[a] (isomer B).

The data set is the same for the next values; noted with them: value marked [b].
For the compound `CC(=NOCC1OC1CON=C(C)c1cccc(C)n1)c1cccc(C)n1` (racemic) [compound 286], the logP was 2.08^[b]. On the same count and under the same terms, the value for `CC(=NOCC(C)CON=C(C)c1cc(Cl)cc(C)n1)c1cc(C)cc(C)n1` (racemic) [compound 878] was 5.69^[b]; that for `CC(=NOCC(C)CON=C(C)c1nc(C)ccc1C)c1nc(C)ccc1C` (single isomer, unassigned) [Compound 267] was 2.5^[b] (isomer B); that for `CCCC(=NOCCCCON=C(C)c1cccc(C)n1)c1ncccc1C` (single isomer, unassigned) [Compound 327] was 3.61^[b] (isomer A). The same measure, in the same setting: the value for `C=C(CON=C(C)c1cccc(C)n1)CON=C(C)c1cc(OC)cc(C)n1` (single isomer, unassigned) [Compound 476] was 3.33^[b] (isomer B); that for `CC(=NOCC1(CON=C(C)c2nc(C)ccc2C)CCCC1)c1nc(C)ccc1C` (single isomer, unassigned) [Compound 763] was 4.76^[b].

The data set is the same for the next values; noted with them: value marked [c].
Take `CC(=NOCC(C)CON=C(C)c1cc(Cl)cc(C)n1)c1cc(C)cc(C)n1` (racemic) [compound 878]: the logP is 7.32^[c]. On the same count and under the same terms, for `CC(=NOCC1(CON=C(C)c2nc(C)ccc2C)CCCC1)c1nc(C)ccc1C` (single isomer, unassigned) [Compound 763] the value was 6.32^[c].
